Assays:
[1] = system: intestinal bacteria; conditions: humans, 3 g daily dose; cited from earlier work
[2] = Clinical study in GERD patients: hydrogen breathing test for bacterial overgrowth syndrome; assay type: in vivo, human; conditions: n = 10
Excerpt: (§1) The study included 100 patients with endoscopically negative GERD form, i.e. men and women aged 19 to 50 years old infected with H. pilori.
(§2) All the patients received treatment on a similar pattern: they received the composition of a proton pump inhibitor and a prebiotic 2 times a day for 56 days.
Before and after treatment course (on Day 56) all the patients were subjected to hydrogen breathing test on the presence of bacterial overgrowth syndrome.

[3] = Clinical study in GERD patients: quality of life by Visual Analog Scale; assay type: in vivo, human; conditions: n = 10
[4] = Clinical study in GERD patients: symptom severity (pyrosis, regurgitation) on Likert scale; assay type: in vivo, human; conditions: n = 10; for medium term arresting pyrosis / medium term arresting regurgitation: oral, 2 times a day for 56 days
[5] = system: Helicobacter pylori; experiment: Clinical study in GERD patients: biopsy of antrum and gastric corpus for Helicobacter pylori (cytology/histology, urease test); assay type: in vivo, human; conditions: n = 10
Excerpt: as §1, §2
In all patients, before treatment and in 4 weeks (1 month) after completion of the treatment course the biopsy of the antrum and gastric corpus was made for the presence of Helicobacter pylori. For HP diagnostics the following was used:
1. Cytological and histological biopsy of mucosa of the antrum and gastric corpus obtained in gastroscopy.
2. Urease test, in which the mucous membrane biopsy material obtained from the antrum and the gastric corpus were examined for the presence of urease, an enzyme specific for Helicobacter pylori.
(§3) Repeated visits were made in 2 and 5 weeks after the treatment start; during the visits treatment efficacy and safety were determined, besides, it was determined if the therapy could be continued. In 56 days (8 weeks) after the therapy start, the patient came to a visit, wherein efficacy and safety of treatment was evaluated and the treatment was terminated. In 11 weeks after the treatment start, the final visit was made which included esophagogastroduodenoscopy with byopsy of the antrum and the gastric corpus for HP detection.

[6] = Clinical study in GERD patients: tolerability (diarrhea, flatulence, AE necessitating discontinuation); assay type: in vivo, human; conditions: n = 10
Excerpt: as §1
All the patients were divided into 10 groups of 10 persons each, of whom 5 groups (I-V) were experimental ones, while 5 groups (VI-X) were control ones.
In the experimental groups patients received orally the claimed dosage forms based on PPI and a prebiotic; Group I—a composition which contained omeprazole and lactulose as active components; Group II—a composition which contained pantoprazole and lactitol as active components; Group III—a composition which contained lansoprazole and inulin as active components; Group IV—a composition which contained rabeprazole and fructooligosaccharides as active components; Group V—a composition which contained esomeprazole and lactulose as active components.
In the control groups the patients received PPI monotherapy orally: Group VI—omeprazole; Group VII—pantoprazole; Group VIII—lansoprazole; Group IX—rabeprazole and Group X—esomeprazole.
as §2
The patients kept their diaries in which they made daily records of the time when they took drugs, recorded disease symptom severity according to Likert scale, severity of meteorism, defecation frequency, etc.
as §3

[7] = after treatment (oral, 2 times a day for 56 days)
[8] = after treatment, biopsy after completion of the 56-day course

SMILES	Presence bacterial overgrowth syndrome ([2]; after treatment (Day 56)) [%]	Presence bacterial overgrowth syndrome ([2]; before treatment) [%]	Quality of life no VAC ([3]; after treatment (56 days)) [MM]	Quality of life no VAC ([3]; before treatment) [MM]	Intensity pyrosis on scale Likert [4, 7] [ball]	Intensity regurgitation on scale Likert [4, 7] [ball]	Intensity pyrosis on scale Likert ([4]; before treatment) [ball]	Intensity regurgitation on scale Likert ([4]; before treatment) [ball]	medium term arresting pyrosis [4] [days]	medium term arresting regurgitation [4] [days]	release Helicobacter pylori in the antrum [5, 8] [%]	release Helicobacter pylori in the stomach [5, 8] [%]	release Helicobacter pylori in the antrum ([5]; before treatment) [%]	release Helicobacter pylori in the stomach ([5]; before treatment) [%]	AE, necessitating discontinuation of therapy ([6]; after treatment (56 days)) [%]	Presence diarrhea ([6]; after treatment (56 days)) [%]	Presence flatulence ([6]; after treatment (56 days)) [%]	Presence diarrhea ([6]; before treatment) [%]	Presence flatulence ([6]; before treatment) [%]	further results
OC[C@H]1O[C@@H](O[C@@H]2[C@@H](CO)OC(O)(CO)[C@H]2O)[C@H](O)[C@@H](O)[C@H]1O (mixture of isomers) [lactulose]	–	–	–	–	–	–	–	–	–	–	–	–	–	–	–	–	–	–	–	number of Bifidobacteria and Lactobacillus [1]: significant increase; number of Clostridium perfringens, Bacteroides, Enterobacteriaceae, and Streptococcus [1]: decrease
COCCCOc1ccnc(C[S+]([O-])c2nc3ccccc3[nH]2)c1C (stereo not shown) [group IX, rabeprazole]	40	10	87.3 ± 19.5	58.5 ± 20.2	1.2 ± 0.6	1.1 ± 0.3	3.6 ± 0.7	3.5 ± 1.1	7.8 ± 3.5	7.5 ± 3.4	100	80	100	20	0	20	50	0	20	–
COc1ccc2[nH]c([S+]([O-])Cc3ncc(C)c(OC)c3C)nc2c1 (stereo not shown) [group VI, omeprazole]	50	10	87.6 ± 21.2	58.1 ± 18.9	1.2 ± 0.6	1.1 ± 0.3	3.6 ± 0.8	3.5 ± 1.2	7.8 ± 3.5	7.5 ± 3.4	100	70	100	20	0	20	60	0	20	–
COc1ccnc(C[S+]([O-])c2nc3ccc(OC(F)F)cc3[nH]2)c1OC (stereo not shown) [group VII, pantoprazole]	40	10	87.6 ± 21.2	58.1 ± 18.9	1.0 ± 0.4	1.2 ± 0.3	3.3 ± 0.5	3.4 ± 1.1	7.5 ± 3.1	7.6 ± 3.4	100	80	100	20	0	20	50	0	10	–
Cc1c(OCC(F)(F)F)ccnc1C[S+]([O-])c1nc2ccccc2[nH]1 (stereo not shown) [group VIII, lansoprazole]	50	10	84.2 ± 21.5	57.4 ± 17.5	1.1 ± 0.5	1.1 ± 0.2	3.4 ± 0.7	3.6 ± 1.1	7.8 ± 3.3	7.7 ± 3.2	100	70	100	20	0	20	60	0	10	–
COc1ccc2nc([S@@+]([O-])Cc3ncc(C)c(OC)c3C)[nH]c2c1 [group X, esomeprazole]	50	10	87.6 ± 21.2	58.1 ± 18.9	1.1 ± 0.2	1.3 ± 0.1	3.5 ± 0.9	3.6 ± 1.1	7.7 ± 3.1	7.2 ± 3.1	100	80	100	20	0	20	60	0	10	–

From US20150202192A1, “PHARMACEUTICAL COMPOSITION FOR TREATING GASTRO-OESOPHAGEAL REFLUX DISEASE” (priority 2012, published 2015)
